What was measured:
[1] = target: T1, P-gp (Homo sapiens, UniProt P08183); design: made in house; host or cells: Spodoptera frugiperda Sf9 cells, crude membrane vesicles; settings: Caco-2 cells; ref previous studies; cited from earlier work
[2] = target: T2, BCRP (Homo sapiens, UniProt Q9UNQ0); settings: cited from earlier work
T2 sequence (Q9UNQ0 1-655): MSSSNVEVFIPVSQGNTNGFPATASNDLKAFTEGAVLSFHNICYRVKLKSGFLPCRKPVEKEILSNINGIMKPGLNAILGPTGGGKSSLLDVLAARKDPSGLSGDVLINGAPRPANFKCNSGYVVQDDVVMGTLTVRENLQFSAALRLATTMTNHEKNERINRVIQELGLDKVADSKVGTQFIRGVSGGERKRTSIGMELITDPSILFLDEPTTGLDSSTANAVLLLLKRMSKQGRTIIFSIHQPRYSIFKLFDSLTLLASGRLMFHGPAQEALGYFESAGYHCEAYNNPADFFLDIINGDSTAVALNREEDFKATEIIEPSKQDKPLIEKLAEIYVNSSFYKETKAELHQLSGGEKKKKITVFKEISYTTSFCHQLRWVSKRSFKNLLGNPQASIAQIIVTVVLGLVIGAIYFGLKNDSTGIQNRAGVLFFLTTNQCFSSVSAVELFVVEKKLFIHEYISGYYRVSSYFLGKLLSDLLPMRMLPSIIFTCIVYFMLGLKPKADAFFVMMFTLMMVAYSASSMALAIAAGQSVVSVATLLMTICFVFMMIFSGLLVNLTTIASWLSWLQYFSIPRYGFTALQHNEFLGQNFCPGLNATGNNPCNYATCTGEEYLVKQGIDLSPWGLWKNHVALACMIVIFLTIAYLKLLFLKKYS

[3] = target: T1, P-gp; experiment: Vesicular transport assay, P-gp (N-methyl-quinidine substrate)
Description: Transport inhibition by 22 food additives was tested with Spodoptera frugiperda (Sf9) derived crude membrane vesicles expressing BCRP, MRP2, or P-gp produced in-house. […] Vesicles (50 μg total protein/well) were diluted in an assay buffer (40 mM MOPS–Tris pH 7.0, 60 mM KCl, and 6 mM MgCl2) with the substrate, and food additives (final concentration of 50 μM) in DMSO were added to the mixture. After preincubation, either the assay buffer or Mg-ATP solution (final concentration 4 mM) was added to the plate to start the reaction. The plate was incubated at 37 °C, and the reaction was stopped with an ice-cold washing mixture (40 mM MOPS-Tris pH 7.0 and 70 mM KCl). Samples were moved to a MultiScreenHTS-FB Plate Glass fiber 1.0 μm/0.65 μm Durapore filter plate (Millipore, USA), and the wells were washed five times with the ice-cold washing mixture. For BCRP and MRP2, the fluorescent substrate was eluted from the filters with 100 μL 0.1 M NaOH. For LY samples, an equal volume of 0.1 M HCl was added to neutralize the samples before fluorescence measurement. The amount of the substrate accumulated into the vesicles was measured by fluorescent detection using a Varioskan LUX microplate reader (Thermo Fisher Scientific, Finland) (Table ). The accumulation into the P-gp vesicles was measured with high-performance liquid chromatography (HPLC) (Agilent 110 series, Agilent Technologies, USA) after lysis and elution of the vesicle contents with 100 μL 3:1 methanol/water + 0.1% formic acid. The column used was a Poroshell 120 EC-C18 with a size of 4.6 × 100 mm and 2.7 μm particle size. Eluent A was 0.1% formic acid, and eluent B was acetonitrile. The flow rate of eluent was 1 mL/min, and the injection volume of samples was 10 μL. […] The retention time for NMQ was around 2.5 min.
For the efflux transporters, the relative transport was calculated as relativetransport(%ofcontrol)=transportinh,ATP−transportinh,noATP/transportDMSO,ATP−transportDMSO,noATP×100% where transportinh,ATP and transportinh,no ATP are the transport rates in the presence of food additives with or without ATP, respectively, and transportDMSO,ATP and transportDMSO,no ATP are the corresponding transport rates in the presence of the vehicle (DMSO) with or without ATP.
The half-maximal inhibitory concentrations (IC50) were calculated with GraphPad Prism version 9.0.2 (GraphPad Software, San Diego, CA) using nonlinear regression that fits the data to a four-parameter dose–response curve: relativetransport=minimum+maximum−minimum/1+([I]/IC50)^h where minimum and maximum describe the plateaus of minimal and maximal relative transport (%), [I] is the concentration of inhibitor, and h is the Hill slope, which describes the steepness of the slope.

[4] = tested on: Caco-2 cells; experiment: in vitro; settings: Caco-2
Description: Caco-2 cells were cultured on 12-well Transwell polycarbonate membrane inserts with a 0.4 μm pore size (Corning Incorporated, Kennebunk, ME) at 37 °C and 5% CO2 for 21–24 days prior to the experiment as described in Hubatsch et al. The culture medium (DMEM, 10% FBS, 1% MEM nonessential amino acids, 100 U/mL penicillin–streptomycin) was changed every second day. Transepithelial electrical resistance (TEER) was measured before and after the permeability assay with a Millicell-ERS electrode (Millipore, Bedford, MA) attached to an epithelial volt ohm meter (EVOM, World Precision Instruments, Sarasota, FL). The permeability assay was performed according to a previously published protocol. […] Sulfasalazine is a substrate of BCRP and OATP2B1. , The DMSO concentration was 0.45–1.5%. Before the experiment, inserts were washed and preincubated in the transport buffer for 20 min shaking at 37 °C. Sulfasalazine and LY permeability was measured in the apical to basolateral direction at five time points (20, 40, 60, 90, and 120 min) and, additionally, in the basolateral to apical direction to calculate the efflux ratio. […] […] LY (250 μM) was added on the donor side of all inserts to measure the integrity of the cell monolayer. Before analysis, samples were centrifuged at 2755g for 30 min, and donor solution and mass balance samples were diluted 1:100. LY fluorescence was measured with a Varioskan LUX microplate reader (Thermo Fisher Scientific) at 430 nm excitation and 538 nm emission. Sulfasalazine was analyzed with ultra-performance liquid chromatography (UPLC) using a Syncronis C18 column (1.7 μm particle size, 50 × 2.1 mm + 0.2 μm Waters online filter) (Thermo Fisher Scientific) coupled with Waters Acquity UPLC interfaced with a PDA detector both controlled by the Waters Empower software version 3. The UPLC was operated in gradient mode at 354 nm. Solvents were 0.015 M phosphate buffer pH 2 (A), acetonitrile (B), 1:1 acetonitrile/methanol (strong needle wash), and 20% acetonitrile (weak needle wash). Column temperature was 30 °C, injection volume was 10 μL, retention time was 1.46 min, and flow rate was 0.5 mL/min. The gradient was 25% B → 70% B (0–3 min), 70% B → 25% B (3.00–3.01 min), and 25% B (3.01–4 min). The data were collected for the first 180 s of each UPLC run.
In the Caco-2 permeability assay, the apparent permeability (P app) of sulfasalazine was calculated using the following equation: Papp=(dQ/dt)(1/A×C0) where dQ/dt is the rate of permeation across the cells (nmol/min), A is the surface area of the filter (1.12 cm^2), and C 0 is the initial concentration in the donor chamber (μM). The efflux ratio of sulfasalazine was calculated by dividing the P app in the basolateral to the apical direction by the P app in the apical to basolateral direction. The TEER for each cell insert was calculated before and after the experiment by multiplying the mean resistance of three measurements by the surface area of the filter (1.12 cm^2). Mass balance was calculated by dividing the […]. All experiments were done in triplicate wells, and the IC50 and Caco-2 permeability assays were repeated three times.

T1 sequence (P08183 whole entry): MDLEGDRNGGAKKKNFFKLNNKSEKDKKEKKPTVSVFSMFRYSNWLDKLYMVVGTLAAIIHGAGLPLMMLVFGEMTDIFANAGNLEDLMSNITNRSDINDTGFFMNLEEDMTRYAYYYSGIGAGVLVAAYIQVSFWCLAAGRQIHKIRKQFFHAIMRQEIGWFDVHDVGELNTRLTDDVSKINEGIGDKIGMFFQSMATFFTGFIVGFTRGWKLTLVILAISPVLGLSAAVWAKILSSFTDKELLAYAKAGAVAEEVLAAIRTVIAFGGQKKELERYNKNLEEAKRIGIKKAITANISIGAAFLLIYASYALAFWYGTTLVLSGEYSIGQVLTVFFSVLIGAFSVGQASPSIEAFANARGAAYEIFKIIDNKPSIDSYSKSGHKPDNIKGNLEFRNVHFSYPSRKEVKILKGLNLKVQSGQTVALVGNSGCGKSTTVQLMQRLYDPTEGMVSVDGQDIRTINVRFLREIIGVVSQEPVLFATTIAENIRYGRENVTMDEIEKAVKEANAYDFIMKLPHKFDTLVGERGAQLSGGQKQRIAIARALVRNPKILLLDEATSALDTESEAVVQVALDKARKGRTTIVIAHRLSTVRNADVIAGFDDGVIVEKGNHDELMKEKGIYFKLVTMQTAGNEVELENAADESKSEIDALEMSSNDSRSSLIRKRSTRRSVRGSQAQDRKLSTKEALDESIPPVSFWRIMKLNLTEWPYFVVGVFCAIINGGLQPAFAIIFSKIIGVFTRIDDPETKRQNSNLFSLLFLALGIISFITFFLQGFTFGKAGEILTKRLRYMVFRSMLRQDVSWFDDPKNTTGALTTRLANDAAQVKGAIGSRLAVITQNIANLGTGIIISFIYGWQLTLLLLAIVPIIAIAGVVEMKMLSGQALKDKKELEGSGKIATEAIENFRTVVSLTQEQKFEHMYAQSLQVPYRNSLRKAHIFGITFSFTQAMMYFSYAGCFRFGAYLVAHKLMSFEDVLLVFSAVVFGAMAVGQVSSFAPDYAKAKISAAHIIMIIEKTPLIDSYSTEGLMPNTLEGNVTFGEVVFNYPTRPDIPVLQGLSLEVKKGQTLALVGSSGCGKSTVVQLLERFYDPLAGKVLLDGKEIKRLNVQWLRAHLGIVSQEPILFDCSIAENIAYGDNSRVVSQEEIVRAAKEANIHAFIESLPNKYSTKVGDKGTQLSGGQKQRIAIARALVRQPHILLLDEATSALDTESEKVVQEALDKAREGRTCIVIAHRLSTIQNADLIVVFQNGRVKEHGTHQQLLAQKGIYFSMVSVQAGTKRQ

CC1=C(/C=C/C(C)=C/C=C/C(C)=C/C=C/C=C(C)/C=C/C=C(C)/C=C/C2=C(C)CCCC2(C)C)C(C)(C)CCC1 [beta-carotene]
P-gp inhibition in Caco-2 cells [1]: inhibitor of P-gp | BCRP inhibition potency [2]: weak inhibition potency | IC50 [3]: 3.2 µM | inhibition at 50 μM ([3]; Sf9-derived crude membrane vesicles expressing P-gp, pH 7, probe N-methyl-quinidine 2 μM): ≥ 50% | effect on sulfasalazine permeability (P app) [4]: None of the selected food additives showed any effect

Source: publication PMC12406256, “Food Additives Inhibit Intestinal Drug Transporters but Have Limited Effect on In Vitro Drug Permeability” (Molecular Pharmaceutics, 2025)
